Source: ChEMBL document CHEMBL6096630, “Enhancing therapeutic efficacy in homologous recombination-proficient pancreatic cancer via the combination of PARP1-PROTAC and a BRD4 inhibitor” (Bioorg Med Chem, 2024)
Active and inactive are the calls of the source. No cut-off for these calls is given here.

What was measured:
BXPC-3 = experiment: Synergistic antiproliferative activity against human BXPC-3 cells expressing wild-type BRCA assessed as combination index at 2:1 ratio of compound:JQ1 incubated for 5 days by CCK8 assay; type: functional; settings: time 5 day
PANC-1 [1] = experiment: Induction of apoptosis in human PANC-1 cells assessed as decrease in Bcl-2 level at 2 uM incubated for 48 hrs in presence of JQ1 by Western blot analysis; type: functional, cell-based
PANC-1 [2] = experiment: Induction of apoptosis in human PANC-1 cells assessed as increase in cleaved caspase-3 level at 2 uM incubated for 48 hrs in presence of JQ1 by Western blot analysis; type: functional, cell-based
[3] = target: T1, Protein cereblon/Poly [ADP-ribose] polymerase 1 (Homo sapiens, UniProt P09874+Q96SW2); experiment: PROTAC activity at CRBN/PARP1 in human PANC-1 cells assessed as induction of PARP1 degradation incubated for 24 hrs by Western blot analysis relative to control; type: cell-based
T1 sequence (P09874 2-1014 limits assumed): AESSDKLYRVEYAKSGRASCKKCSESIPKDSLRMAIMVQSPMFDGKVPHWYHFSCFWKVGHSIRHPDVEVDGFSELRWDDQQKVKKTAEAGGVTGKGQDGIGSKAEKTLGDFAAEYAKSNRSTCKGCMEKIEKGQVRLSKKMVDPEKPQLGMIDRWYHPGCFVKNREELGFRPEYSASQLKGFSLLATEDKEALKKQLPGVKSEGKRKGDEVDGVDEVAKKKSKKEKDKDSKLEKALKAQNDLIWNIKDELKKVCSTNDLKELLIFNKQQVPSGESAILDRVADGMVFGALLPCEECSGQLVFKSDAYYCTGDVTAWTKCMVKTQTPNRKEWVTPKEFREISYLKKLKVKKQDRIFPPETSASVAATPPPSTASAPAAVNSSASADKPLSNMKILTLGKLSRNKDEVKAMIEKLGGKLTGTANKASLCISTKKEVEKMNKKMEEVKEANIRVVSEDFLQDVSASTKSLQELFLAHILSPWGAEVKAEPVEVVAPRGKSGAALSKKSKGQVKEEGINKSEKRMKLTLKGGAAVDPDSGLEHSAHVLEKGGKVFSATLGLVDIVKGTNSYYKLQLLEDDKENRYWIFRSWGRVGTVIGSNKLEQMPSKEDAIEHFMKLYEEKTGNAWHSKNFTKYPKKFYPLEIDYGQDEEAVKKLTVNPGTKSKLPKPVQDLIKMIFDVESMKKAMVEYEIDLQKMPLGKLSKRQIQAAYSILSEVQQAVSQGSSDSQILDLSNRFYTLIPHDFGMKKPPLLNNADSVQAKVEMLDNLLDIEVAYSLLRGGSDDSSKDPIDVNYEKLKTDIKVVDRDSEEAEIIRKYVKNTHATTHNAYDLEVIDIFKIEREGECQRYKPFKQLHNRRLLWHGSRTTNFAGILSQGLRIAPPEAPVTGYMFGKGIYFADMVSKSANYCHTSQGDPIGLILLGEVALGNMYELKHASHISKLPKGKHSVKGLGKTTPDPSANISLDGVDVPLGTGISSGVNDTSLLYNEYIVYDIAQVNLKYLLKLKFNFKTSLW
T1 sequence (Q96SW2 whole entry partner): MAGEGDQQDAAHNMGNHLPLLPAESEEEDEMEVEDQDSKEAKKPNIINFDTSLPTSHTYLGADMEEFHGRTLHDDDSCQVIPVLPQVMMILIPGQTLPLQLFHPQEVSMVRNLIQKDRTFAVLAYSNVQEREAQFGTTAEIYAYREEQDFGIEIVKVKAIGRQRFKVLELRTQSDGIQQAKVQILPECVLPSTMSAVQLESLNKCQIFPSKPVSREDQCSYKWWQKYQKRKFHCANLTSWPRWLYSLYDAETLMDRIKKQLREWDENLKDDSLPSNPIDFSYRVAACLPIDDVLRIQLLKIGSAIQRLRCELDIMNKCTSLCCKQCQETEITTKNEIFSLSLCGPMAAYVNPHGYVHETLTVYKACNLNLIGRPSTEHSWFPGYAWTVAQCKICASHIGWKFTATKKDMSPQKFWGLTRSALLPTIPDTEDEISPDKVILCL

[4] = target: T1, Protein cereblon/Poly [ADP-ribose] polymerase 1; experiment: PROTAC activity at CRBN/PARP1 in human BXPC-3 cells assessed as induction of PARP1 degradation at 2 uM incubated for 24 hrs by immunofluorescence based analysis; type: cell-based
PANC-1 [5] = experiment: Induction of DNA damage in human PANC-1 cells assessed as increase in gamma-H2AX level at 0.6 to 10 uM incubated for 48 hrs by Western blot analysis; type: functional, cell-based; settings: dose 0.6-10 µM
[6] = Toxicity in BALB/c mouse xenografted with human PANC-1 cells assessed as animal mortality at 20 mg/kg, ip for 4 weeks administered for 5 days consecutively and 2 days without treatment on every week in presence of OL; type: organism-based; settings: in vivo, 672 h
[7] = Toxicity in BALB/c mouse xenografted with human PANC-1 cells assessed as pathological changes in heart at 20 mg/kg, ip for 4 weeks administered for 5 days consecutively and 2 days without treatment on every week in presence of OL by H and E staining based analysis; type: organism-based; settings: in vivo, 672 h
PANC-1 [8] = experiment: Induction of apoptosis in human PANC-1 cells assessed as necrotic cells at 0.5 uM incubated for 48 hrs by Annexin V-FITC/PI staining based flow cytometry (reference value: 3.09 %); type: functional
PANC-1 [9] = experiment: Induction of apoptosis in human PANC-1 cells assessed as viable cells at 1 uM incubated for 48 hrs by Annexin V-FITC/PI staining based flow cytometry (reference value: 91.64 %); type: functional; settings: read-out: Activity
PANC-1 [10] = experiment: Induction of apoptosis in human PANC-1 cells assessed as early apoptotic cells at 0.12 uM incubated for 48 hrs by Annexin V-FITC/PI staining based flow cytometry (reference value: 1.41 %); type: functional
PANC-1 [11] = experiment: Induction of cell cycle arrest in human PANC-1 cells assessed as accumulation at G1 phase at 0.12 uM incubated for 24 hrs by PI staining based flow cytometry (reference value: 51.70 %); type: functional
[12] = Toxicity in BALB/c mouse xenografted with human PANC-1 cells assessed as drug tolerance at 20 mg/kg, ip for 4 weeks administered for 5 days consecutively and 2 days without treatment on every week in presence of OL; type: organism-based; settings: in vivo, 672 h
PANC-1 [13] = experiment: Antitumor activity against human PANC-1 cells xenografted in BALB/c mouse assessed as inhibition of tumor weight at 20 mg/kg, ip for 4 weeks administered for 5 days consecutively and 2 days without treatment on every week in presence of OL; type: functional, organism-based
[14] = Toxicity in BALB/c mouse xenografted with human PANC-1 cells assessed as animal morbidity at 20 mg/kg, ip for 4 weeks administered for 5 days consecutively and 2 days without treatment on every week; type: organism-based; settings: in vivo, 672 h
[15] = Toxicity in BALB/c mouse xenografted with human PANC-1 cells assessed as pathological changes in spleen at 20 mg/kg, ip for 4 weeks administered for 5 days consecutively and 2 days without treatment on every week by H and E staining based analysis; type: organism-based; settings: in vivo, 672 h
PANC-1 [16] = experiment: Induction of apoptosis in human PANC-1 cells assessed as late apoptotic cells at 1 uM incubated for 48 hrs by Annexin V-FITC/PI staining based flow cytometry (reference value: 3.87 %); type: functional
PANC-1 [17] = experiment: Induction of DNA damage in human PANC-1 cells assessed as increase in gamma-H2AX level at 1 uM in presence of OL by Western blot analysis; type: functional, cell-based
PANC-1 [18] = experiment: Induction of cell cycle arrest in human PANC-1 cells assessed as accumulation at G0/G1 phase at 1 uM incubated for 24 hrs in presence of OL by PI staining based flow cytometry relative to control; type: functional

O=C(c1cc(Cc2n[nH]c(=O)c3ccccc23)ccc1F)N1CCN(C(=O)C2CC2)CC1 [OLAPARIB]
CI (BXPC-3): <1

O=C1CCC(N2C(=O)c3cccc(NC(=O)CNCCCCCCCCCCC(=O)N4CCN(C(=O)c5cc(Cc6n[nH]c(=O)c7ccccc67)ccc5F)CC4)c3C2=O)C(=O)N1 (centres undefined)
Activity (PANC-1 [1]): Active
Activity (PANC-1 [2]): Active
Emax [3]: > 95%
Activity [4]: Active
Activity (PANC-1 [5]): Active

Cc1sc2c(c1C)C(c1ccc(Cl)cc1)=N[C@@H](CC(=O)OC(C)(C)C)c1nnc(C)n1-2
Activity [6]: Non-toxic
Activity [7]: Non-toxic
Activity (PANC-1 [8]): 3.56%
viability at 1 µM (PANC-1 [9]): 80.3%
Activity (PANC-1 [10]): 2.83%
Activity (PANC-1 [11]): 46.24%
Activity [12]: Non-toxic
inhibition (PANC-1 [13]): Active
Activity [14]: Non-toxic
Activity [15]: Non-toxic
Activity (PANC-1 [16]): 9.46%
Activity (PANC-1 [17]): Active
Activity (PANC-1 [18]): 12.43%
